Experimental data published in US20240009159A1, “ANTIVIRAL COMPOSITION FOR SARS-COV-2 AND HCOV-OC43 COMPRISING RHEIN, MECLOFENAMIC ACID, OR A COMBINATION THEREOF” (SEOUL NATIONAL UNIVERSITY R&DB FOUNDATION, priority 2020, published 2024).
Where two headings read alike, the source gives them in different places.

Experiments:
SARS-CoV-2 [1] = type: cell-based; details: SARS-CoV-2-infected Vero cells
HCoV-OC43 [2] = experiment: viral RNA level by qRT-PCR in HCoV-OC43-infected Vero cells; type: cell-based, human coronavirus OC43 (HCoV-OC43); details: for viral RNA level of N (normalized to GAPDH): control DMSO
HCoV-OC43 [3] = experiment: viral RNA level by qRT-PCR in HCoV-OC43-infected HCT-8 cells; type: cell-based, human coronavirus OC43 (HCoV-OC43)
SARS-CoV-2 [4] = type: cell-based; details: MA at 50 μM, treated two hours before infection; SARS-CoV-2-infected differentiated HBEC cells, 3.3×10^4 PFU; 48 hours after infection
SARS-CoV-2 [5] = type: cell-based; details: SARS-CoV-2-infected Calu-3 cells
[6] = rhein at 25 μM, MOI 0.05, 24 hours after infection, control DMSO

Compound | viral RNA levels of nsp12, M, and N (normalized to GAPDH) compared with the control group (SARS-CoV-2 [1]; MA at 50 μM, control ethanol) | viral RNA level of N (normalized to GAPDH) (HCoV-OC43 [2]; MA at 10 μM, 25 μM, 50 μM, and 100 μM) | viral RNA level of N (normalized to GAPDH) (HCoV-OC43 [3]; MA at 50 μM, control DMSO and ethanol) | viral RNA levels (nsp12, M, and N, normalized to GAPDH) compared with the control group (SARS-CoV-2 [4]) | viral RNA levels of nsp12, M, and N (normalized to GAPDH) compared with the control group (SARS-CoV-2 [5]; MA at 50 μM, control ethanol) | viral RNA levels of nsp12, M, and N (normalized to GAPDH) compared with the control group (SARS-CoV-2 [1]; [6]) | dose dependence of inhibition of the RNA level of N (HCoV-OC43 [2]; increasing concentration of rhein (5-50 μM), FIG. 1D) | viral RNA level of N (normalized to GAPDH) (HCoV-OC43 [2]; rhein at 5 μM, 10 μM, 25 μM, and 50 μM, 24 hours after infection) | viral RNA level of N (normalized to GAPDH) (HCoV-OC43 [3]; rhein at 250 μM and 25 μM, 24 hours after infection, control DMSO+Ethanol) | viral RNA levels of nsp12, M, and N (normalized to GAPDH) compared with the control group (SARS-CoV-2 [5]; [6])
Cc1ccc(Cl)c(Nc2ccccc2C(=O)O)c1Cl [MA, meclofenamic acid] | less than 5% | significantly inhibited | significantly inhibited | ≤ 40% | less than 5% | – | – | – | – | –
O=C(O)c1cc(O)c2c(c1)C(=O)c1cccc(O)c1C2=O [rhein, 4,5-dihydroxy-9,10-dioxoanthracene-2-carboxylic acid] | – | – | – | – | – | less than 30% | dose-dependent effect was confirmed | significantly inhibited | significantly inhibited | less than 5%
